Measured values published in ChEMBL document CHEMBL5154690, “Discovery of a tricyclic farnesoid X receptor agonist HEC96719, a clinical candidate for treatment of non-alcoholic steatohepatitis” (Eur J Med Chem, 2022).
Activity calls are given as the source filed them. No cut-off for these calls is given here.

Tests used:
Mus musculus [1] = test: Anti-NASH activity against high fat (HF) diet-induced nonalcoholic steatohepatitis in leptin-deficient ob/ob mouse model assessed as reduction in serum TG level at 3 mg/kg, po administered once daily from week 5 to 10; format: functional, organism-based
Mus musculus [2] = test: Anti-NASH activity against high fat (HF) diet-induced nonalcoholic steatohepatitis in leptin-deficient ob/ob mouse model assessed as reduction in liver cholesterol level at 3 mg/kg, po administered once daily from week 5 to 10; format: functional, organism-based
Mus musculus [3] = test: Anti-NASH activity against high fat (HF) diet-induced nonalcoholic steatohepatitis in leptin-deficient ob/ob mouse model assessed as reduction in serum ALT level at 3 mg/kg, po administered once daily from week 5 to 10; format: functional, organism-based
[4] = Volume of distribution at steady state in male Sprague-Dawley rat at 1 mg/kg, iv measured by LC-MS/MS analysis; format: ADME, organism-based; details: in vivo, read-out: Vdss
[5] = AUC (0 to t) in male Sprague-Dawley rat at 5 mg/kg, po measured by LC-MS/MS analysis; format: ADME, organism-based; parameters: dose 5 mg/kg, route po; details: in vivo
[6] = Cmax in male Sprague-Dawley rat at 5 mg/kg, po measured by LC-MS/MS analysis; format: ADME, organism-based; parameters: dose 5 mg/kg, route po; details: in vivo
[7] = AUC (0 to t) in male Sprague-Dawley rat at 1 mg/kg, iv measured by LC-MS/MS analysis; format: ADME, organism-based; parameters: dose 1 mg/kg, route iv; details: in vivo
[8] = Clearance in male Sprague-Dawley rat at 1 mg/kg, iv measured by LC-MS/MS analysis; format: ADME, organism-based; details: in vivo
[9] = Half-life in male Sprague-Dawley rat at 5 mg/kg, po measured by LC-MS/MS analysis; format: ADME, organism-based; details: in vivo
[10] = Oral bioavailability in male Sprague-Dawley rat at 5 mg/kg measured by LC-MS/MS analysis; format: ADME, organism-based; details: in vivo
Bile acid receptor [11] = target: T1, Bile acid receptor (Homo sapiens, UniProt Q96RI1); test: Agonist activity at human FXR expressed in HEK293T cells by luciferase reporter assay; format: cell-based
T1 sequence (Q96RI1 whole entry): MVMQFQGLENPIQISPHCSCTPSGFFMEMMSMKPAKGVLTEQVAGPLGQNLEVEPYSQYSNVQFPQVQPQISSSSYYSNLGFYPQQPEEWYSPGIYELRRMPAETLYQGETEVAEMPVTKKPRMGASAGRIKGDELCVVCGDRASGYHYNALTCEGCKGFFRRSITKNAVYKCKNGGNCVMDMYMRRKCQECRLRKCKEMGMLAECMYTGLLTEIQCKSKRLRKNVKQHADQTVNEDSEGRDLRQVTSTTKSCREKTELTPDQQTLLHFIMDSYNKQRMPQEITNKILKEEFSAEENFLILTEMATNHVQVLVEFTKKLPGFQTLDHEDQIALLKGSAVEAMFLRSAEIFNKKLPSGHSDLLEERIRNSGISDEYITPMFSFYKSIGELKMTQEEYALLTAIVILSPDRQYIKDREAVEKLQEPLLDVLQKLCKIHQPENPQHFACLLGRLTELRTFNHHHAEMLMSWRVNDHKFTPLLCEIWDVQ

[12] = Toxicity in alpha-naphthyl- isothiocyanate (ANIT)-induced cholestatic injury model of Sprague-Dawley rat assessed as effect on […] death at 10 mg/kg, po administered once daily for 4 days; format: organism-based; details: in vivo, 96 h, time 4 day
Bile acid receptor [13] = target: T1, Bile acid receptor; test: Agonist activity at FXR-LBD (unknown origin) assessed as induction of coactivator SRC-1 peptide recruitment measured by TR-FRET assay
[14] = Toxicity in alpha-naphthyl- isothiocyanate (ANIT)-induced cholestatic injury model of Sprague-Dawley rat assessed as effect on […] death; details: in vivo

Row | Structure (SMILES) | Vd [4] | AUC(0-t) [5] | Cmax [6] | AUC(0-t) [7] | clearance [8] | half-life [9] | bioavailability [10] | EC50 (Bile acid receptor [11]) | EC50 (Bile acid receptor [13]) | Activity (Mus musculus [1]) | Activity (Mus musculus [2]) | Activity (Mus musculus [3]) | other results
1 | O=C(O)c1ccc2c(c1)Oc1ccc(OCc3c(-c4c(Cl)cccc4Cl)noc3C3CC3)cc1CC2 |  |  |  |  |  |  |  | 345 nM | 833 nM |  |  |  | Activity [12]: Toxic
2 | CC1=Cc2nc(OCc3c(-c4c(Cl)cccc4Cl)noc3C3CC3)ccc2Oc2cc(C(=O)O)ccc21 |  |  |  |  |  |  |  | 87.3 nM | 6.03 nM |  |  |  | 
3 | O=C(O)c1cc(F)c2c(c1)Oc1ccc(OCc3c(-c4c(Cl)cccc4Cl)noc3C3CC3)nc1CC2 |  |  |  |  |  |  |  | 372 nM |  |  |  |  | 
4 | O=C(O)c1ccc2c(c1)Oc1ccc(OCc3c(-c4c(Cl)cccc4Cl)noc3C3CC3)nc1CC2 | 0.4 L/kg | 1250 ng·h/mL | 3000 ng/mL | 1180 ng·h/mL | 14.3 mL/min/kg | 44.4 min | 37.1% | 102 nM | 3.57 nM | Active | Active | Active | Activity [14]: Non-Toxic
5 | O=C(O)c1ccc2c(c1)Oc1ccc(OCc3c(-c4c(Cl)cccc4Cl)noc3C3CC3)nc1C=C2F |  |  |  |  |  |  |  | 219 nM | 17.3 nM |  |  |  | 

Further lines, with some results ahead:

Row | Vd [4] | AUC(0-t) [5] | Cmax [6] | AUC(0-t) [7] | clearance [8] | half-life [9] | bioavailability [10] | EC50 (Bile acid receptor [11]) | EC50 (Bile acid receptor [13]) | Structure (SMILES) | Activity (Mus musculus [1]) | Activity (Mus musculus [2]) | Activity (Mus musculus [3]) | other results
6 | 0.54 L/kg | 2230 ng·h/mL | 1280 ng/mL | 554 ng·h/mL | 30.3 mL/min/kg | 55.8 min | 44.9% |  |  | CC1Cc2ccc(C(=O)O)cc2Oc2ccc(OCc3c(-c4c(Cl)cccc4Cl)noc3C3CC3)nc21 (stereo unspecified) | Active | Active | Active | 
7 |  |  |  |  |  |  |  | 114 nM | 14.3 nM | O=C(O)c1ccc2c(c1)Oc1ccc(OCc3c(-c4c(Cl)cccc4Cl)noc3C3CC3)nc1CO2 |  |  |  | 
8 |  |  |  |  |  |  |  | 161 nM | 11.7 nM | O=C(O)c1ccc2c(c1)Oc1cnc(OCc3c(-c4c(Cl)cccc4Cl)noc3C3CC3)cc1CC2 |  |  |  | 
9 | 0.35 L/kg | 1180 ng·h/mL | 2210 ng/mL | 963 ng·h/mL | 17.5 mL/min/kg | 72 min | 46.2% |  |  | CC1=Cc2ccc(C(=O)O)cc2Oc2ccc(OCc3c(-c4c(Cl)cccc4Cl)noc3C3CC3)nc21 | Active | Active | Active | 
10 |  |  |  |  |  |  |  |  | 37 nM | O=C(O)c1ccc2c(c1)Oc1ncc(OCc3c(-c4c(Cl)cccc4Cl)noc3C3CC3)cc1CC2 |  |  |  | 
